Calls of active or inactive are those of the source.
Key:
[1] = Toxicity in mouse assessed as effect on aspartate transaminase level at 10 to 30 mg/kg, ip measured after 8 days; assay type: organism-based; conditions: in vivo, 192 h, dose 10-30 mg/kg, time 8 day
[2] = Toxicity in mouse assessed as effect on body weight at 10 to 30 mg/kg, ip measured after 8 days; assay type: organism-based; conditions: in vivo, 192 h, dose 10-30 mg/kg, time 8 day
[3] = tested on: Staphylococcus epidermidis; test: Antibacterial activity against Staphylococcus epidermidis ATCC 12228 assessed as transparent well by visual inspection after 18 hrs by CLSI based-broth microdilution method; assay type: functional
[4] = tested on: RAW264.7; test: Cytotoxicity against mouse RAW264.7 assessed as reduction in cell viability measured after 24 hrs by MTT assay; assay type: cell-based; conditions: raw264.7, 24 h
[5] = tested on: Enterobacter sp.; test: Antibacterial activity against Enterobacter sakazakii ATCC 29544 assessed as transparent well by visual inspection after 18 hrs by CLSI based-broth microdilution method; assay type: functional
[6] = tested on: Escherichia coli; test: Antibacterial activity against ESBL-producing Escherichia coli clinical isolate 5 assessed as transparent well by visual inspection after 18 hrs by CLSI based-broth microdilution method; assay type: functional
[7] = tested on: Escherichia coli; test: Bactericidal activity against Escherichia coli assessed as killing effect at 1 times MIC measured at 120 mins by bacterial colony counting assay; assay type: functional, organism-based
[8] = Toxicity in mouse assessed as effect on total protein level at 10 to 30 mg/kg, ip measured after 8 days; assay type: organism-based; conditions: in vivo, 192 h, dose 10-30 mg/kg, time 8 day
[9] = tested on: Escherichia coli; test: Antibacterial activity against Escherichia coli ATCC 25922 assessed as transparent well by visual inspection after 18 hrs by CLSI based-broth microdilution method; assay type: functional
[10] = tested on: Pseudomonas aeruginosa; test: Antimicrobial activity against multidrug-resistant Pseudomonas aeruginosa infected in peritonitis sepsis mouse model assessed as increase in mouse survival rate at 10 mg/kg, ip measured after 3 days; assay type: functional, organism-based; conditions: time 3.0 day
[11] = tested on: Staphylococcus aureus; test: Bactericidal activity against Staphylococcus aureus assessed as killing effect at 2 times MIC measured at 60 mins by bacterial colony counting assay; assay type: functional; conditions: 1 h
[12] = tested on: Escherichia coli; test: Antibacterial activity against ESBL-producing Escherichia coli clinical isolate 4 assessed as transparent well by visual inspection after 18 hrs by CLSI based-broth microdilution method; assay type: functional
[13] = tested on: Staphylococcus aureus; test: Antibacterial activity against methicillin resistant Staphylococcus aureus clinical isolate 4 assessed as transparent well by visual inspection after 18 hrs by CLSI based-broth microdilution method; assay type: functional
[14] = tested on: Escherichia coli; test: Antibacterial activity against ESBL-producing Escherichia coli clinical isolate 1 assessed as transparent well by visual inspection after 18 hrs by CLSI based-broth microdilution method; assay type: functional
[15] = tested on: Escherichia coli; test: Antibacterial activity against ESBL-producing Escherichia coli clinical isolate 2 assessed as transparent well by visual inspection after 18 hrs by CLSI based-broth microdilution method; assay type: functional
[16] = tested on: Cell membrane; test: Induction of outer membrane permeabilization in Escherichia coli using NPN hydrophobic fluorescent probe at 1 to 8 times of MIC measured for 15 mins by multimode reader
[17] = tested on: NIH3T3; test: Cytotoxicity against mouse NIH/3T3 assessed as reduction in cell viability measured after 24 hrs by MTT assay; assay type: cell-based; conditions: nih3t3, 24 h
[18] = tested on: Bacillus subtilis; test: Antibacterial activity against Bacillus subtilis ATCC 23857 assessed as transparent well by visual inspection after 18 hrs by CLSI based-broth microdilution method; assay type: functional
[19] = tested on: Staphylococcus aureus; test: Antibacterial activity against methicillin resistant Staphylococcus aureus clinical isolate 1 assessed as transparent well by visual inspection after 18 hrs by CLSI based-broth microdilution method; assay type: functional; conditions: C1
[20] = Toxicity in mouse assessed as effect on alanine aminotransferase level at 10 to 30 mg/kg, ip measured after 8 days; assay type: organism-based; conditions: in vivo, 192 h, dose 10-30 mg/kg, time 8 day
[21] = tested on: Staphylococcus aureus; test: Antibacterial activity against methicillin resistant Staphylococcus aureus clinical isolate 2 assessed as transparent well by visual inspection after 18 hrs by CLSI based-broth microdilution method; assay type: functional
[22] = tested on: Erythrocyte; test: Haemolytic activity in human erythrocytes by optical absorption assay; assay type: ADME, cell-based
[23] = tested on: Pseudomonas aeruginosa; test: Inhibition of biofilm formation in multidrug-resistant Pseudomonas aeruginosa at 64 uM measured after 24 hrs by crystal violet staining based assay; assay type: functional
[24] = tested on: HeLa; test: Cytotoxicity against human HeLa cells assessed as reduction in cell viability measured after 24 hrs by MTT assay; assay type: cell-based
[25] = tested on: Staphylococcus aureus; test: Bactericidal activity against Staphylococcus aureus assessed as killing effect at 1 times MIC measured at 240 mins by bacterial colony counting assay; assay type: functional, organism-based
[26] = tested on: Staphylococcus aureus; test: Antibacterial activity against Staphylococcus aureus ATCC 29213 assessed as transparent well by visual inspection after 18 hrs by CLSI based-broth microdilution method; assay type: functional; conditions: C1 ATCC 29213
[27] = tested on: Pseudomonas aeruginosa; test: Antimicrobial activity against multidrug-resistant Pseudomonas aeruginosa infected in peritonitis sepsis mouse model assessed as increase in mouse survival rate at 30 mg/kg, ip measured after 7 days; assay type: functional, organism-based; conditions: time 7.0 day
[28] = Toxicity in mouse assessed as effect on total albumin level at 10 to 30 mg/kg, ip measured after 8 days; assay type: organism-based; conditions: in vivo, 192 h, dose 10-30 mg/kg, time 8 day
[29] = tested on: Pseudomonas aeruginosa; test: Antibacterial activity against Pseudomonas aeruginosa ATCC 27853 assessed as transparent well by visual inspection after 18 hrs by CLSI based-broth microdilution method; assay type: functional
[30] = tested on: Pseudomonas aeruginosa; test: Antibacterial activity against Pseudomonas aeruginosa clinical isolate assessed as transparent well by visual inspection after 18 hrs by CLSI based-broth microdilution method; assay type: functional
[31] = tested on: Escherichia coli; test: Bactericidal activity against Escherichia coli assessed as killing effect at 2 times MIC measured at 60 mins by bacterial colony counting assay; assay type: functional; conditions: 1 h
[32] = tested on: Cell membrane; test: Induction of inner membrane permeabilization in Escherichia coli ML-35 assessed as increase in ONPG at 1 to 8 times of MIC measured 100 mins by multimode reader
[33] = tested on: Escherichia coli; test: Antibacterial activity against ESBL-producing Escherichia coli clinical isolate 3 assessed as transparent well by visual inspection after 18 hrs by CLSI based-broth microdilution method; assay type: functional
[34] = tested on: Staphylococcus aureus; test: Antibacterial activity against methicillin resistant Staphylococcus aureus clinical isolate 3 assessed as transparent well by visual inspection after 18 hrs by CLSI based-broth microdilution method; assay type: functional

H-PWRLRLRL-OH
74.6%: inhibition at 64 µM [23]
inactive: Activity [10]
32 µM: MIC [13] | MIC [19] | MIC [21] | MIC [26] | MIC [34]
active: Activity [7] | Activity [16] Dose-Dependent Effect | Activity [25] | Activity [27] | Activity [32]
100%: Activity [11] | Activity [31]
8 µM: MIC [3] | MIC [5] | MIC [29] | MIC [30]
4 µM: MIC [6] | MIC [9] | MIC [12] | MIC [14] | MIC [15] | MIC [18] | MIC [33]
Non-Toxic: Activity [1] | Activity [2] | Activity [4] | Activity [8] | Activity [17] | Activity [20] | Activity [22] | Activity [24] | Activity [28]

Reference: ChEMBL document CHEMBL4814067, “An optimized analog of antimicrobial peptide Jelleine-1 shows enhanced antimicrobial activity against multidrug resistant P. aeruginosa and negligible toxicity in vitro and in vivo” (Eur J Med Chem, 2021)
